Here are results for two compounds from patent US20070197646A1, “SUBSTITUTED TARAXASTANES USEFUL FOR TREATING VIRAL INFECTIONS” (ACHILLION PHARMACEUTICALS, INC., priority 2006, published 2007).

Molecules are shown by their SMILES.

One series has as its system HIV-1. The series is described as follows: Inhibition of early phase virus replication (MAGI cell β-gal indicator assay). The format is cell-based. As to conditions: Human immunodeficiency virus 1; MAGI cells, MOI of 0.00125. The method, then: (§1) Virology studies are preformed to assess the antiviral potency substituted heterobetulinic acids. The antiviral effect of these compounds is evaluated by parallel studies of inhibition of viral replication and cell viability. Viruses and cells for use in these assays may be obtained from the NIH AIDS Reagent Program.
The effect of compounds on the early phase virus replication, from virus particle attachment through early gene, Tat expression, are evaluated using a CD4-positive LTR-β-galatosidase-expressing HeLa (MAGI) cell indicator line. This assay, described previously to assess the level of β-gal expression, has been modified and adopted in our laboratory. β-gal levels are quantified by photon detection assay, with virus infected cells that are not treated with a capsid formation inhibitor giving the highest level of expression. […]
MAGI Cells are trypsinization and counted using the trepan blue exclusion method, and resuspended at a pre-determined concentration (usually 2×10^4 cells/well) in 10% FBS complete RPMI 1640. […]
The viruses are diluted to a pre-determined MOI/well, typically 0.01 to 1, in Pre-MAGI media plus 20 μg/well DEAE-dextran. […]
Plates are incubated at room temperature (25° C.) for 60-90 minutes or until constant light emission is reached. Plate(s) are read in a luminometer and measured for 0.1-1.0 sec/well.

In the next series the test system is mock-infected cells. The series is described as follows: Assessment of cytotoxicity (cell viability in parallel). Format: cell-based. The method, then:
as §1
Plates are incubated at 37° C. in a humidified CO2 incubator for six days. Following incubation of the HIV-1 infected cells with the compound cell viability is assessed using a calorimetric assay of metabolic activity, such as an XTT, MTT or WST-1 assay, or a BrdU incorporation assay. Cytotoxicity of the compound is determined in parallel by measurement of the viability of mock-infected cells treated with the compound. Uninfected cells without compounds are used for a 100% viability control. Infected cells to which no compound is added provide a value for 100% of cell death due to viral infection. The number of surviving or viable cells is quantified by a tetrazolium-based colorimetric method using the CellTiter96 reagent (Promega, Madison, Wis.).

In general, EC50 refers to the midpoint of the concentration-response curve. A higher EC50 goes with a less potent agent. In the series on HIV-1, `CC1=CC[C@]2(C(=O)O)CC[C@]3(C)[C@H](CC[C@@H]4[C@@]5(C)CCC(OC(=O)CC(C)(C)C(=O)O)C(C)(C)[C@@H]5CC[C@]43C)[C@H]2[C@@H]1C` (stereo partly shown) [Compound 11] gave an EC50 of less than 2000 nM. The cytotoxicity entry in the series with mock-infected cells was “Neither compound was cytotoxic”.
The like results for `CC1=CC[C@]2(CO)CC[C@]3(C)[C@H](CC[C@@H]4[C@@]5(C)CC[C@H](OC(=O)CC(C)(C)C(=O)O)C(C)(C)[C@@H]5CC[C@]43C)[C@H]2[C@@H]1C` [Compound 12] were, in that order, less than 100 nM and “Neither compound was cytotoxic”.
